Assay results: US20100298242A1, “MASKING THE TASTE OF COMPOSITONS CONTAINING SALT” (priority 2006, published 2010)
Entries after “also recorded” stand apart in the source; their conditions may differ. Where two headings read alike, the source gives them in different places. One block for each molecule: values may come before it. Where a SMILES comes first, the peptide text is derived from it.

What was measured:
[1] = cited from earlier work
[2] = cited from earlier work; for ADI value/kg KG: acceptable daily intake per kg body weight
[3] = neotam as aspartame derivative; cited from earlier work
[4] = Organoleptic check of ORS solutions with a single sweetener; type: in vivo; settings: 200 mg Na-cyclamate or quantity calculated to equal sweetening power per dose
Method: Permitted sweeteners were used for a taste test on ORS solutions. Different concentrations of 10 to 200 mg of the sweetener Na-cyclamate were weighed into the solids mixture. Na-cyclamate is a sodium salt like NaCl. In comparison to other sweeteners, it has a low sweetening power. It was to be found out whether the salty taste of the ORS solution can be masked as a function of concentration by Na-cyclamate. The powder mixtures were weighed out according to the composition of the WHO and dissolved in water according to the instruction.
After organoleptic checking, no salty taste was perceived for the ORS solution with a concentration of 200 mg Na-cyclamate.
The sweeteners were calculated to the standard concentration of the Na-cyclamate. The different sweetening power values of the sweeteners were used as the reference variable.
The calculated quantities of sweeteners were added to the ORS powder mixtures and dissolved in water. The following organoleptic test took place.

bladder carcinomas = settings: cited from earlier work
[5] = Acceptable daily intake (ADI) value and highest daily doses calculated from it; settings: child weighing 10 kg; for Highest dose/sachet: four sachets a day
Text: An E number is provided for each sweetener and an ADI value is defined. The “acceptable daily intake” (ADI) value gives the quantity in milligrams per kilogram of body weight (KG) of the substance, which can be taken daily for life without incurring damage.
ADI values (acceptable daily intake) were established for the sweeteners. Using the ADI values, maximum concentrations can be calculated, which may be applied daily by a substance without incurring damage for life. The sweetener addition to the ORS solutions is limited by the ADI values. According to the specialist information for preparation C, the therapeutic maximum dose is four sachets a day for babies and small children. […] The calculation relates to the bodyweight of a child weighing 10 kg.

[6] = in vivo; cited from earlier work
[7] = Organoleptic test of ORS solutions with sugars and sugar alcohols; type: in vivo
Text: Further sweetening agents were included in a taste testing. An addition of sugars and sugar alcohols has a substantially stronger effect on the total osmolarity of an ORS solution than the addition of sweeteners. […] In addition to the total osmolarity of the effective constituents of the ORS solutions, the values are outside the recommended limits of the WHO recommendations. The quantities to be added are not to be recommended either in relation to the promotion of caries and a laxative effective. […] A taste test was nevertheless carried out with the sugars and sugar alcohols. Complete dissolution took place in water and an organoleptic test took place with the calculated quantities. […] The concentrations of substances were reduced to such an extent that the maximum limit of the osmolarity of 311 mosmol/l was adhered to. […] The addition of sweeteners is to be preferred in each case with regard to side-effects, osmolarity and a complete masking of the salty taste.

[8] = ranking of the three sweeteners
Method: In order to use as few sweeteners as possible, two sweeteners from Table 3 are combined with one another in each case. The result is six combinations. […] As a result, the concentration with 40 mg for aspartame was only selected to be half as high as the maximally permissible daily highest limit. In order to ensure a comparability with the other sweeteners, the concentration of aspartame was also retained for the remaining combinations.
Proceeding from the tested concentration ratios of the combinations it was investigated whether the same masking of taste can be achieved by a reduction in dose of the sweeteners.

[9] = sugars and sugar alcohols table
[10] = relative to saccharose = 1, sweeteners permitted in the European Union
[11] = calculated quantities (equal sweetness to 200 mg Na-cyclamate)
[12] = concentrations reduced so that maximum osmolarity of 311 mosmol/l is adhered to

Molecule: Isomalt
Sweetening power [1, 9]: 0.45

Molecule: OC[C@H]1O[C@H](O[C@]2(CCl)O[C@H](CCl)[C@@H](O)[C@@H]2O)[C@H](O)[C@@H](O)[C@H]1Cl [Sucralose]
ADI value/kg KG [2]: 15 mg mg/kg KG
Sweetening power [1, 10]: 600

Molecule: COc1ccc(CCC(=O)c2c(O)cc(O[C@@H]3O[C@H](CO)[C@@H](O)[C@H](O)[C@H]3O[C@@H]3O[C@@H](C)[C@H](O)[C@@H](O)[C@H]3O)cc2O)cc1O [Neohesperidin dihydrochalcone]
ADI value/kg KG [2]: 5 mg mg/kg KG
Sweetening power [1, 10]: 1000

Molecule: COC(=O)[C@H](Cc1ccccc1)NC(=O)[C@H](CC(=O)O)NCCC(C)(C)C [Neotam]
Sweetening power ([1]; relative to saccharose): about 10,000
hydrolytic stability [3]: better hydrolytic stability

Molecule: OC[C@@H](O)[C@@H](O)[C@H](O)[C@@H](O)CO [Sorbitol]
Sweetening power [1, 9]: 0.6

Molecule: OC[C@@H](O)[C@@H](O)[C@H](O)[C@H](O)CO [Mannitol]
Sweetening power [1, 9]: 0.4

Molecule: Thaumatin
ADI value/kg KG [2]: 5 mg mg/kg KG
Sweetening power [1, 10]: 3000
masking of the salty taste of the ORS solution [4]: could also no longer be masked

Highest daily dose/10 kg BW [5]: 50 mg
Highest dose/sachet [5]: 12.5 mg
Molecule: O=C1NS(=O)(=O)c2ccccc21.[Na] [Saccharin sodium]
promotion of the growth of bladder carcinomas (bladder carcinomas): suspected of promoting the growth of bladder carcinomas
ADI value/kg KG [2]: 5 mg mg/kg KG
Sweetening power [1, 10]: 500

Molecule: CC1=CC(=O)NS(=O)(=O)O1 [Acesulfame potassium]
ADI value/kg KG [2]: 15 mg mg/kg KG
Sweetening power [1, 10]: 200
masking of the salty taste of the ORS solution ([4]; listed as acesulfame-K): salty taste was perceived to a lesser extent; also recorded: masking was achieved
Highest daily dose/10 kg BW [5]: 150 mg
Highest dose/sachet [5]: 37.5 mg

Molecule: CC1=CC(=O)NS(=O)(=O)O1.COC(=O)[C@H](Cc1ccccc1)NC(=O)[C@@H](N)CC(=O)O [Aspartame-acesulfame salt] (H-Asp-Phe-OMe)
fate in the human organism (splitting, metabolism, elimination) [6]: split into its original components aspartame and acesulfame
Sweetening power [1, 10]: 350
masking of the salty taste of the ORS solution [4]: salty taste was perceived to a lesser extent

Molecule: OC[C@H]1O[C@@](CO)(O[C@H]2O[C@H](CO)[C@@H](O)[C@H](O)[C@H]2O)[C@@H](O)[C@@H]1O [Saccharose]
masking of the salty taste of the ORS solutions [7, 11]: masking of the salty taste of the ORS solutions could substantially be achieved
masking of the salty taste of the ORS solutions [7, 12]: No masking of taste could be achieved
Sweetening power ([1]; relative to saccharose): one
Sweetening power [1, 9]: 1

Molecule: COC(=O)[C@H](Cc1ccccc1)NC(=O)[C@@H](N)CC(=O)O [Aspartame] (H-Asp-Phe-OMe)
fate in the human organism (splitting, metabolism, elimination) [6]: metabolised in the body
ADI value/kg KG [2]: 40 mg mg/kg KG
Sweetening power [1, 10]: 200
masking of the salty taste of the ORS solution [4]: salty taste was perceived to a lesser extent; also recorded: masking was achieved
Highest daily dose/10 kg BW [5]: 400 mg
Highest dose/sachet [5]: 100.0 mg

Molecule: OC[C@H]1O[C@@H](O[C@H]2[C@H](O)[C@@H](O)C(O)O[C@@H]2CO)[C@H](O)[C@@H](O)[C@H]1O (stereo partly drawn) [Lactose]
Sweetening power [1, 9]: 0.2

Molecule: OC[C@@H](O)[C@@H](O[C@H]1O[C@H](CO)[C@@H](O)[C@H](O)[C@H]1O)[C@H](O)[C@@H](O)CO [Maltitol]
masking of the salty taste of the ORS solutions [7, 11]: masking of the salty taste of the ORS solutions could substantially be achieved
masking of the salty taste of the ORS solutions [7, 12]: substantially not salty, but very sour and not sweet
Sweetening power [1, 9]: 0.9

Molecule: CC1=CC(=O)NS(=O)(=O)O1 [Acesulfame]
fate in the human organism (splitting, metabolism, elimination) [6]: eliminated unchanged via the kidneys

Highest daily dose/10 kg BW [5]: 110 mg
Highest dose/sachet [5]: 27.5 mg
Molecule: O=S(=O)([O-])NC1CCCCC1.[Na+] [Sodium cyclamate]
ADI value/kg KG [2]: 11 mg mg/kg KG
ADI value [2]: 11 mg per kg of bodyweight
Sweetening power [1, 10]: 30
Sweetening power [1, 9]: 30
ability to mask a salty taste [8]: highest
masking of the salty taste of the ORS solution [4]: complete masking of taste; also recorded: masking was achieved
